How the values were obtained:
[1] = target: cGMP-specific 3',5'-cyclic phosphodiesterase (Homo sapiens, UniProt O76074); assay: Inhibitory concentration against Phosphodiesterase type 5
Phosphodiesterase 1 = Phosphodiesterase 1 (Homo sapiens, UniProt P54750+Q01064+Q14123); assay: Inhibitory concentration against Phosphodiesterase type 1; format: protein assay

| SMILES | IC50 [1] | IC50 (Phosphodiesterase 1) |
| --- | --- | --- |
| CCc1cc(C(C)=O)c(O)cc1OCc1cccc(C(=O)NC(CO)CC(=O)O)n1 (centres undefined) | 9.46 µM |  |
| CCc1cc(C(C)=O)c(O)cc1OCc1cccc(C(=O)NC(Cc2ccc(O)cc2)C(=O)O)n1 (centres undefined) | 3.68 µM |  |
| CCCCC(C(=O)NO)c1csc(NC(=O)c2cccc(COc3ccccc3)n2)n1 (centres undefined) | 0.27 µM | 0.2 µM |
| O=C(O)CCC(CCC(=O)O)(C(=O)O)c1csc(NC(=O)c2cccc(COc3ccccc3)n2)n1 | 9.28 µM | > 10 µM |
| O=C(O)Cc1cccc(NC(=O)c2cccc(COc3ccccc3)n2)n1 | 9.43 µM | > 10 µM |
| CCc1cc(C(C)=O)c(O)cc1OCc1cccc(C(=O)NC(CO)C(=O)OCc2ccccc2)n1 (centres undefined) | 8.62 µM |  |
| CCCCCCCC(=O)OCC(NC(=O)c1cccc(COc2cc(O)c(C(C)=O)cc2CC)n1)C(=O)O (centres undefined) | 3.28 µM |  |
| CCc1cc(C(C)=O)c(O)cc1OCc1cccc(C(=O)Nc2nn[nH]n2)n1 | 5.15 µM |  |
| CCc1cc(C(C)=O)c(O)cc1OCc1cccc(C(=O)NC(CO)CCC(=O)OC)n1 (centres undefined) | 2.64 µM |  |
| O=C(Cc1cccc(NC(=O)c2cccc(COc3ccccc3)n2)n1)NO | 0.04 µM | > 10 µM |
| COc1ccc(NC(=O)c2cccc(COc3ccccc3)n2)cc1C(=O)NO | 3.5 µM | > 10 µM |
| O=C(O)Cc1cccc(NC(=O)c2cccc(COc3ccccc3)n2)c1 | 10 µM | > 10 µM |
| O=C(Cc1csc(NC(=O)Cc2cccc(C(F)(F)F)c2)n1)NO | 2.07 µM | > 10 µM |
| O=C(Cc1cccc(NC(=O)c2cccc(COc3ccccc3)n2)c1)NO | 0.013 µM | 2.41 µM |
| O=C(NO)c1cccc(NC(=O)c2cccc(COc3ccccc3)n2)n1 | 1.47 µM | > 10 µM |
| O=C(Cc1csc(NC(=O)CCC(=O)c2ccccc2)n1)NO | 4.52 µM | > 10 µM |
| CCC(C(=O)Nc1nc(CC(=O)NO)cs1)c1ccccc1 (centres undefined) | 6.19 µM | > 10 µM |
| CC(C)C(C(=O)NO)c1csc(NC(=O)c2cccc(COc3ccccc3)n2)n1 (centres undefined) | 2.42 µM | 3.9 µM |
| CCCCCCC(C(=O)O)c1csc(NC(=O)c2cccc(COc3ccccc3)n2)n1 (centres undefined) | 4.58 µM | > 10 µM |
| CCc1cc(C(C)=O)c(O)cc1OCc1cccc(C(=O)NC(Cc2cnc[nH]2)C(=O)OC)n1 (centres undefined) | 9.07 µM |  |
| O=C(Nc1nc(C2(C(=O)NO)CC2)cs1)c1cccc(COc2ccccc2)n1 | 0.89 µM | 0.63 µM |
| O=C(Cc1csc(NC(=O)COc2ccc(Cl)cc2)n1)NO | 1.69 µM | 1.81 µM |
| Cc1cccc(C(=O)Nc2nc(CC(=O)NO)cs2)c1Br | 8.43 µM | 3.87 µM |
| COc1ccc2c(c1)C(CC(=O)Nc1nc(CC(=O)NO)cs1)CC2=O (centres undefined) | 3.16 µM | > 10 µM |
| CCc1cc(C(C)=O)c(O)cc1OCc1cccc(C(=O)NCCCCCC(=O)O)n1 | 7.65 µM |  |

| SMILES | IC50 [1] | IC50 (Phosphodiesterase 1) |
| --- | --- | --- |
| O=C(Cc1csc(NC(=O)Nc2cccc3ccccc23)n1)NO | 3.81 µM | > 10 µM |
| CCCCC(C(=O)O)c1csc(NC(=O)c2cccc(COc3ccccc3)n2)n1 (centres undefined) | 6.49 µM | > 10 µM |
| O=C(Cc1csc(NC(=O)c2ccccn2)n1)NO | 3.2 µM | 7.1 µM |
| CCc1cc(C(C)=O)c(O)cc1OCc1cccc(C(=O)NC(C)C(=O)NO)n1 (centres undefined) | 0.35 µM |  |
| O=C(Nc1nc(C(Cc2ccccc2)C(=O)O)cs1)c1cccc(COc2ccccc2)n1 (centres undefined) | 10 µM | > 10 µM |
| O=C(Nc1nc(C(Cc2ccccc2)C(=O)NO)cs1)c1cccc(COc2ccccc2)n1 (centres undefined) | 0.83 µM | 1.36 µM |
| Cc1nc(NC(=O)c2cccc(COc3ccccc3)n2)sc1C(=O)NO | 0.77 µM | > 10 µM |
| CCc1cc(C(C)=O)c(O)cc1OCc1cccc(C(=O)N[C@@H](C)C(=O)O)n1 | 0.46 µM |  |
| O=C(Cc1csc(NC(=O)c2cccc(C(=O)c3ccccc3)c2)n1)NO | 3.41 µM | 1.72 µM |
| O=C(O)CCC(C(=O)O)c1csc(NC(=O)c2cccc(COc3ccccc3)n2)n1 (centres undefined) | 10 µM | > 10 µM |
| CCc1cc(C(C)=O)c(O)cc1OCc1cccc(C(=O)NC(CO)CC(=O)OC)n1 (centres undefined) | 3.1 µM |  |
| O=C(Nc1nc(C2(C(=O)O)CC2)cs1)c1cccc(COc2ccccc2)n1 | 8.58 µM | > 10 µM |
| CCc1cc(C(C)=O)c(O)cc1OCc1cccc(C(=O)NC(CC(=O)O)c2ccccc2)n1 (centres undefined) | 1.45 µM |  |
| CCOC(=O)CC(NC(=O)c1cccc(COc2cc(O)c(C(C)=O)cc2CC)c1)C(=O)OCC (centres undefined) | 0.65 µM |  |
| CCc1cc(C(C)=O)c(O)cc1OCc1cccc(C(=O)NC(O)CC(=O)OC)n1 (centres undefined) | 6.07 µM |  |
| O=C(NO)C(=O)c1csc(NC(=O)c2cccc(COc3ccccc3)n2)n1 | 2.2 µM | > 10 µM |
| CCc1cc(C(C)=O)c(O)cc1OCc1cccc(C(=O)Nc2nc(CC(=O)O)cs2)c1 | 0.63 µM |  |
| CCc1cc(C(C)=O)c(O)cc1OCc1cccc(C(=O)N[C@H](C)C(=O)O)n1 | 1.03 µM |  |
| Cc1sc(NC(=O)c2cccc(COc3ccccc3)n2)nc1CC(=O)NO | 0.04 µM | 4.52 µM |
| O=C(Cc1csc(NC(=O)C2C=CN(c3ccccc3)c3ccccc32)n1)NO (centres undefined) | 0.79 µM | 0.38 µM |
| CCc1cc(C(C)=O)c(O)cc1OCc1cccc(C(=O)NC(CO)(CO)CO)n1 | 8.91 µM |  |
| C=CCN(CCC(=O)O)C(=O)c1cccc(COc2cc(O)c(C(C)=O)cc2CC)n1 | 0.87 µM |  |
| Cc1c(NC(=O)c2cccc(COc3ccccc3)n2)cccc1C(=O)NO | 2.66 µM | > 10 µM |
| CCc1cc(C(C)=O)c(O)cc1OCc1cccc(C(=O)NC(C(=O)OC)C(C)O)n1 (centres undefined) | 3.35 µM |  |
| CCc1cc(C(C)=O)c(O)cc1OCc1cccc(C(=O)NCCC(=O)O)n1 | 0.27 µM |  |

| SMILES | IC50 [1] | IC50 (Phosphodiesterase 1) |
| --- | --- | --- |
| O=C(Cc1csc(NC(=O)c2cnc3ccccc3n2)n1)NO | 1.84 µM | > 10 µM |
| COc1cc(OC)c(OC)c(C(=O)Nc2nc(CC(=O)NO)cs2)c1 | 2.58 µM | > 10 µM |
| COc1ccc2c(c1)OC(=O)CC2CC(=O)Nc1nc(CC(=O)NO)cs1 (centres undefined) | 5.99 µM | > 10 µM |
| CC(C)(C(=O)NO)c1csc(NC(=O)c2cccc(COc3ccccc3)n2)n1 | 0.52 µM | 0.67 µM |
| O=C(Cc1csc(NC(=O)COc2ccccc2)n1)NO | 5.62 µM | > 10 µM |
| COc1ccc2c(c1)c(CC(=O)Nc1nc(CC(=O)NO)cs1)c(C)n2C(=O)c1ccc(Cl)cc1 | 1.28 µM | 2.8 µM |
| CCc1cc(C(C)=O)c(O)cc1OCc1cccc(C(=O)N(CC)CCCCCCCCC(N)=O)n1 | 1.21 µM |  |
| CCc1cc(C(C)=O)c(O)cc1OCc1cccc(C(=O)NC(C)C(=O)O)c1 (centres undefined) | 0.13 µM |  |
| CCc1cc(C(C)=O)c(O)cc1OCc1cccc(C(=O)N(CCCCCCCCC(N)=O)C(C)CC)n1 (centres undefined) | 3.3 µM |  |
| O=C(Nc1nc(C2(C(=O)NO)CCOCC2)cs1)c1cccc(COc2ccccc2)n1 | 2.49 µM | 2.93 µM |
| CCc1cc(C(C)=O)c(O)cc1OCc1cccc(C(=O)NC(C)C(=O)OC)c1 (centres undefined) | 2.13 µM |  |
| CCc1cc(C(C)=O)c(O)cc1OCc1cccc(C(=O)NC(C(=O)O)C(C)C)n1 (centres undefined) | 1.24 µM |  |
| CCc1cc(C(C)=O)c(O)cc1OCc1cccc(C(=O)NCC(=O)O)c1 | 0.92 µM |  |
| CCc1cc(C(C)=O)c(O)cc1OCc1cccc(C(=O)NCC(O)c2ccc(O)cc2)n1 (centres undefined) | 3.19 µM |  |
| Cc1cc(C)cc(C(=O)Nc2nc(CC(=O)NO)cs2)c1 | 1.83 µM | > 10 µM |
| O=C(Cc1csc(NC(=O)c2cccc3ccccc23)n1)NO | 1.1 µM | 1 µM |
| O=C(Cc1csc(NC(=O)c2cnccc2Oc2ccc(Cl)cc2)n1)NO | 0.32 µM | 2.67 µM |
| O=C(Cc1csc(NC(=O)c2ccc(Cl)cc2Cl)n1)NO | 4.25 µM | > 10 µM |
| CCc1cc(C(C)=O)c(O)cc1OCc1cccc(C(=O)Nc2ccc(OCC(=O)O)cc2)n1 | 3.1 µM |  |
| O=C(Cc1csc(NC(=O)c2cccc(SC(F)(F)F)c2)n1)NO | 0.43 µM | 1.72 µM |
| Cc1nc(NC(=O)c2cccc(COc3ccccc3)n2)sc1C(=O)O | 4.99 µM | 4.48 µM |
| O=C(Nc1nc(C2(C(=O)O)CCOCC2)cs1)c1cccc(COc2ccccc2)n1 | 10 µM | > 10 µM |
| CCC(=O)OCC(NC(=O)c1cccc(COc2cc(O)c(C(C)=O)cc2CC)n1)C(=O)O (centres undefined) | 6.68 µM |  |
| CCc1cc(C(C)=O)c(O)cc1OCc1cccc(C(=O)NC2COC(=O)C2)n1 (centres undefined) | 7.82 µM |  |
| CCc1cc(C(C)=O)c(O)cc1OCc1cccc(C(=O)NC(CO)C(=O)O)c1 (centres undefined) | 0.68 µM |  |
